Data on twelve compounds can be found in ChEMBL document CHEMBL1201862, “PubChem BioAssay data set” (2004).

Common to all, as to assay: DTP human tumour cell line panel, 48 h
Experiment [1] concerns A498.
Experiment [2] relates to CAKI-1.
Experiment [3] relates to EKVX.
For experiment [4], the system named is HOP-62.
Experiment [5] deals with IGROV-1.
The test system of experiment [6] is KM12.
Experiment [7] concerns MOLT-4.
Experiment [8] deals with Malme-3M.
In experiment [9] the test system is RPMI-8226.
Experiment [10] relates to SN12C.
Experiment [11] has as its system SW-620.
Experiment [12] has as its system UO-31.
Experiment [13] concerns MDA-MB-231.
For experiment [14], the system named is NCI/ADR-RES.
Experiment [15] concerns SK-MEL-28.
Experiment [16] concerns SK-MEL-5.
Experiment [17] relates to SK-OV-3.
Experiment [18] concerns SNB-75.
The test system of experiment [19] is TK-10.
In experiment [20] the test system is U-251.

Broadly, the GI50 is the concentration that inhibits growth by half.

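Each compound was tested at five concentrations against cells in 96-well plates for 48 hours. The concentration for 50% growth inhibition is given as GI50.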 Active and inactive are the calls of the source. Cut-off read from the data, not from the text of the source: active = GI50 up to about 1.1 µM and inactive = higher. Some results are limits rather than exact numbers.

With `Oc1c(C(Nc2cccc3cccnc23)c2ccccc2)ccc2cccnc12` (centres undefined), the GI50 is 22.6 µM (inactive) in [1]; 5.6 µM (inactive) in [2]; 4.84 µM (inactive) in [3]; 9.64 µM (inactive) in [4]; 8.04 µM (inactive) in experiment [5]; 7.41 µM (inactive) in experiment [6]. The GI50 in experiment [7] was 1.9 µM (inactive); in experiment [8] it was 3.49 µM (inactive); in experiment [9] it was 3.88 µM (inactive); in experiment [10], 9.48 µM (inactive); in experiment [11], 4.05 µM (inactive); in [12], 4.11 µM (inactive).

Consider `Cc1ccn2c(=O)cc(-c3ccccc3)nc2c1`, for which the GI50 is 44.7 µM (inactive) in experiment [3]; > 100 µM (inactive) in experiment [4]; > 100 µM (inactive) in experiment [5]; 68.9 µM (inactive) in experiment [6]; > 100 µM (inactive) in experiment [13]; > 100 µM (inactive) in experiment [7]. The GI50 in [8] is > 100 µM (inactive); in experiment [14] it was 72.3 µM (inactive); in [9] it was > 100 µM (inactive); in [15], > 100 µM (inactive); in experiment [16] it was > 100 µM (inactive); in [17], > 100 µM (inactive). Moreover, the GI50 in [10] is 93.8 µM (inactive); in experiment [18], 18.3 µM (inactive); in [11] it was > 100 µM (inactive); in experiment [19], > 100 µM (inactive); in experiment [20] it was > 100 µM (inactive).

For `CC(C)OP(=O)(OC(C)C)/C(=N/Nc1ccc([N+](=O)[O-])cc1)Nc1ccc(N/C(=N\Nc2ccc([N+](=O)[O-])cc2)P(=O)(OC(C)C)OC(C)C)cc1`, the GI50 was 16.4 µM (inactive) in [1]; 32.8 µM (inactive) in experiment [2]; 26.9 µM (inactive) in experiment [3]; > 100 µM (inactive) in experiment [4]; 4.43 µM (inactive) in experiment [5]; 7.93 µM (inactive) in experiment [6]. In addition, the GI50 in experiment [7] was 2.58 µM (inactive); in experiment [8], > 100 µM (inactive); in [9] it was 5.24 µM (inactive); in [15] it was > 100 µM (inactive); in experiment [16], 6.98 µM (inactive); in experiment [10] it was > 100 µM (inactive). Also, the GI50 in experiment [18] was 14.2 µM (inactive); in experiment [19], 89.9 µM (inactive); in [20], 13.2 µM (inactive); in [12], 21.4 µM (inactive).

For `COC(=O)C1=C(C(=O)OC)C23CC1C1C(C(=O)OC)=C(C(=O)OC)C12C1C=CC3C2C(=O)OC(=O)C21` (centres undefined), the GI50 is > 100 µM (inactive) in [3]; > 100 µM (inactive) in experiment [4]; 59 µM (inactive) in experiment [5]; 31 µM (inactive) in experiment [6]; 38.6 µM (inactive) in experiment [7]; 44.5 µM (inactive) in experiment [8]. Further, the GI50 in experiment [9] is 32.3 µM (inactive); in [15], 65.5 µM (inactive); in experiment [16] it was 41.8 µM (inactive); in [10] it was 91.4 µM (inactive); in experiment [18], 7.1 µM (inactive); in experiment [11] it was 37.5 µM (inactive). Also, the values for the GI50 in [19], in experiment [20] and in [12] were > 100 µM (inactive), 48.2 µM (inactive) and 84.9 µM (inactive), respectively.

On to `COC(=O)C(NC(=O)c1ccccc1)C(c1c(O)cc(O)cc1O)P(=O)(OC)OC` (centres undefined), for which the GI50 in experiment [1], in experiment [2], in [3], in experiment [4], in experiment [5] and in experiment [6] was > 100 µM (inactive) in each case. Besides, the GI50 in experiment [7] was > 100 µM (inactive); in experiment [9], 95.9 µM (inactive); in experiment [15], > 100 µM (inactive); in experiment [16] it was > 100 µM (inactive); in [17], > 100 µM (inactive); in [10], > 100 µM (inactive). The GI50 in experiment [18], in experiment [11], in experiment [19], in [20] and in experiment [12] was > 100 µM (inactive) each time.

Turning to `O=C1C[C@@H]2[C@@H](C=CC23CCCC3)N1O`, the GI50 in experiment [1], in experiment [2], in experiment [3], in experiment [4], in [5] and in experiment [6] was > 100 µM (inactive) throughout. Further, the GI50 in experiment [7], in [8], in experiment [9], in experiment [15], in experiment [16] and in experiment [17] was > 100 µM (inactive) throughout. The GI50 in experiment [10], in experiment [18], in experiment [11], in experiment [19], in experiment [20] and in experiment [12] was > 100 µM (inactive) throughout.

Regarding `O=S(=O)(N=S(c1ccccc1)c1ccccc1)c1ccccc1`, the GI50 in experiment [1] was 78.9 µM (inactive); in experiment [3] it was > 100 µM (inactive); in experiment [4], > 100 µM (inactive); in experiment [6], > 100 µM (inactive); in experiment [7] it was > 100 µM (inactive); in experiment [8] it was > 100 µM (inactive). Also, the GI50 in experiment [14], in experiment [9], in experiment [15], in experiment [10], in experiment [11] and in [19] was > 100 µM (inactive) in each case. For the same compound, the GI50 in [20] and in experiment [12] was > 100 µM (inactive) throughout.

In the case of `O=C1CCC2=C(CCC2)N1CCc1ccc2c(c1)OCO2`, the GI50 was 81.8 µM (inactive) in experiment [2]; 47 µM (inactive) in experiment [3]; 94.6 µM (inactive) in experiment [4]; 58.7 µM (inactive) in [5]; 62.4 µM (inactive) in experiment [6]; > 100 µM (inactive) in experiment [13]. Further, the GI50 in experiment [7] was 15.4 µM (inactive); in experiment [8], > 100 µM (inactive); in [14], 43 µM (inactive); in experiment [9], < 0.01 µM (active); in [15], > 100 µM (inactive); in experiment [16], 24.5 µM (inactive). Also, the GI50 in experiment [17] is > 100 µM (inactive); in [10] it was 95.1 µM (inactive); in [18], 29.2 µM (inactive); in experiment [11] it was > 100 µM (inactive); in [19], 76.9 µM (inactive); in [20], 45.7 µM (inactive). For the same compound, the GI50 in [12] was 21.6 µM (inactive).

Turning to `CCCCNC(=S)Nc1nc(C(=O)NNC(=S)NC2CCCCC2)cs1`, the GI50 was > 100 µM (inactive) in experiment [1]; > 100 µM (inactive) in experiment [2]; > 100 µM (inactive) in experiment [3]; > 100 µM (inactive) in experiment [4]; 66.5 µM (inactive) in [5]; > 100 µM (inactive) in experiment [6]. For the same compound, the GI50 in [13] was > 100 µM (inactive); in experiment [7] it was > 10 µM (inactive); in [8], > 100 µM (inactive); in experiment [14] it was 74.3 µM (inactive); in experiment [9], > 100 µM (inactive); in experiment [16] it was 67.6 µM (inactive). Also, the GI50 is 49 µM (inactive) in experiment [17]; > 100 µM (inactive) in experiment [10]; > 100 µM (inactive) in experiment [11]; > 100 µM (inactive) in experiment [19]; 91.4 µM (inactive) in experiment [20]; 45.6 µM (inactive) in [12].

Take `C=C1C(=O)O[C@@H]2[C@H](O)[C@@H](C)[C@@H]3C=CC(=O)[C@@]3(C)[C@H](OC(=O)C=C(C)C)[C@H]12`: the GI50 in experiment [1] is 2.21 µM (inactive); in experiment [2], 0.536 µM (active); in experiment [3], 1.74 µM (inactive); in experiment [4] it was 4.35 µM (inactive); in [5], 1.96 µM (inactive); in [6], 1.91 µM (inactive). Besides, the GI50 was 0.345 µM (active) in experiment [7]; 0.587 µM (active) in [8]; 0.536 µM (active) in experiment [14]; 0.294 µM (active) in experiment [9]; 0.514 µM (active) in experiment [15]; 1.69 µM (inactive) in experiment [16]. The GI50 in [17] was 3.57 µM (inactive); in experiment [10], 0.877 µM (active); in experiment [18], 1.04 µM (active); in experiment [11], 0.353 µM (active); in [20], 1.49 µM (inactive); in [12], 2.82 µM (inactive).

`O=S(O)CCCCCSSSCCCCCS(=O)O`: the GI50 in experiment [1] is > 100 µM (inactive); in experiment [3], > 100 µM (inactive); in experiment [4], > 100 µM (inactive); in experiment [6] it was > 100 µM (inactive); in experiment [7], 4.81 µM (inactive); in experiment [8], 6.5 µM (inactive). The GI50 in experiment [15] was 39.8 µM (inactive); in [17], > 100 µM (inactive); in experiment [10] it was 53.5 µM (inactive); in experiment [18] it was 24.6 µM (inactive); in [19] it was 29 µM (inactive); in experiment [20], 54.5 µM (inactive). Further, the GI50 in experiment [12] was 35.3 µM (inactive).

As to `Nc1nc(=O)c2c([nH]1)NCC(CNc1ccc(C(=O)N[C@@H](CCC(=O)O)C(=O)O)cc1)N2C=O` (some centres undefined) [LEUCOVORIN CALCIUM], the GI50 in experiment [2] is 102 µM (inactive); in experiment [3], > 125 µM (inactive); in experiment [4], > 125 µM (inactive); in experiment [5], > 125 µM (inactive); in experiment [6] it was > 125 µM (inactive); in experiment [7], > 125 µM (inactive). Also, the GI50 in experiment [8], in experiment [14], in [9], in experiment [15], in experiment [16] and in [17] was > 125 µM (inactive) throughout. For the same compound, the GI50 is 14.8 µM (inactive) in experiment [10]; > 125 µM (inactive) in experiment [18]; > 125 µM (inactive) in [11]; > 125 µM (inactive) in experiment [20]; > 125 µM (inactive) in [12].
